Experiments:
c-KIT [1] = biological target: T1, c-KIT (Homo sapiens, UniProt P10721); assay: Kinase profiling at 10 μM (Eurofins); type: biochemical; settings: read-out: Inhibitory activity
T1 construct: purchased Eurofins Pharma Discovery (KinaseProfiler); IC50 values by Reaction Biology Corp

p70S6K = biological target: T2, p70S6K (Homo sapiens, UniProt P23443); assay: Kinase profiling at 10 μM (Eurofins); type: biochemical; settings: read-out: Inhibitory activity
T2 construct: purchased Eurofins Pharma Discovery (KinaseProfiler); IC50 values by Reaction Biology Corp

CDK5/p35 = biological target: T3, CDK5/p35 (Homo sapiens, UniProt Q00535); assay: Kinase profiling at 10 μM (Eurofins); type: biochemical; settings: read-out: Inhibitory activity
T3 construct: purchased Eurofins Pharma Discovery (KinaseProfiler); IC50 values by Reaction Biology Corp

H1299 cells [2] = assay: Immunoblot of phospho-STAT5; type: cell-based, human
Experimental: Cell lysates were prepared by extracting proteins with TNN buffer (40 mM Tris-Cl pH 8.0, 0.2% NP-40, 120 mM NaCl) or radioimmunoprecipitation assay (RIPA) lysis buffer (Millipore, Billerica MA, USA) supplemented with a protease inhibitor cocktail (Thermo Fisher Scientific, Rockford, IL, USA). Equal amounts of proteins were separated using SDS-PAGE on 8–13% gels, and transferred to nitrocellulose membranes (Bio-Rad, Hercules, CA, USA). The membranes were blocked with 5% skim milk in Tris-buffered saline-Tween 20 (TBST) (150 mM NaCl, 10 mM Tris, 0.2% Tween20), followed by overnight incubation with primary antibodies at 4 °C. The blots were developed using peroxidase-conjugated secondary antibody and the immunoreactive proteins were visualized using enhanced chemiluminescence (ECL) reagents, according to the manufacturer’s recommendations (Amersham, GE Healthcare, Buckingamshire, UK). The protein bands were visualized using a digital imaging system (ImageQuant LAS 4000 mini; GE Healthcare, UK). The protein levels were analyzed using Image J software (National Institutes of Health, Bethesda, MD, USA). Experiments were repeated at least thrice.

ZAP-70 = biological target: T4, ZAP-70 (Homo sapiens, UniProt P43403); assay: Kinase profiling at 10 μM (Eurofins); type: biochemical; settings: read-out: Inhibitory activity
T4 construct: purchased Eurofins Pharma Discovery (KinaseProfiler); IC50 values by Reaction Biology Corp

H1299 cells [3] = assay: MTT cell viability assay, single drugs and combinations, CI scores; type: cell-based, human
Experimental: (§1) Cell viability was assessed using the MTT colorimetric assay. Cells (1 × 10^3 cells/well) were seeded into 96-well plates and treated with the various concentrations of each compound or combination of two compounds. After five days of treatment, 10 μL MTT (0.5 mg/mL) was added, and further incubated for 3 h. After removal of the supernatant, the resultant pellet was dissolved in DMSO. The absorbance of the resultant formazan was measured at 540 nm using a plate reader (Multiskan EX; ThermoLabsystems, Waltham, MA, USA).
(§2) CI scores were calculated using the CompuSyn software by Chou (CompuSyn Inc., Paramus, NJ) based on cell viability after treatment with single- and paired-drug concentrations. The CI equation for two drugs was used: CI=(D)A/(Dx)A+(D)B/(Dx)B where (Dx)A is the concentration of drug A alone that inhibits x%, (Dx)B is the concentration of drug B alone that inhibits x%, (D)A or (D)B is the portion of drug A or drug B in the combination (D)A + (D)B that inhibits x%.

A549 cells [4] = assay: as above; type: cell-based, human
Experimental: as §1, §2

WEE1 = biological target: T5, WEE1 (Homo sapiens, UniProt P30291); assay: Kinase profiling at 10 μM (Eurofins); type: biochemical; settings: read-out: Inhibitory activity
T5 construct: purchased Eurofins Pharma Discovery (KinaseProfiler); IC50 values by Reaction Biology Corp

TrkA = biological target: T6, TrkA (Homo sapiens, UniProt P04629); assay: Kinase profiling at 10 μM (Eurofins); type: biochemical; settings: read-out: Inhibitory activity
T6 construct: purchased Eurofins Pharma Discovery (KinaseProfiler); IC50 values by Reaction Biology Corp

cSRC = biological target: T7, cSRC (Homo sapiens, UniProt P12931); assay: Kinase profiling at 10 μM (Eurofins); type: biochemical; settings: read-out: Inhibitory activity
T7 construct: purchased Eurofins Pharma Discovery (KinaseProfiler); IC50 values by Reaction Biology Corp

ERBB4 = biological target: T8, ERBB4 (Homo sapiens, UniProt Q15303); assay: Kinase profiling at 10 μM (Eurofins); type: biochemical; settings: read-out: Inhibitory activity
T8 construct: purchased Eurofins Pharma Discovery (KinaseProfiler); IC50 values by Reaction Biology Corp

CCD18-Lu cells = assay: MTT cell viability assay; type: cell-based, human; settings: CCD18-Lu lung fibroblast cells, five days
Experimental: as §1

H460 cells = assay: MTT cell viability assay; type: cell-based, human; settings: five days
Experimental: as §1

BEAS2B cells = assay: MTT cell viability assay; type: cell-based, human; settings: BEAS2B normal bronchial epithelial cells, five days
Experimental: as §1

ROCK-I = biological target: T9, ROCK-I (Homo sapiens, UniProt Q13464); assay: Kinase profiling at 10 μM (Eurofins); type: biochemical; settings: read-out: Inhibitory activity
T9 construct: purchased Eurofins Pharma Discovery (KinaseProfiler); IC50 values by Reaction Biology Corp

ARK5 = biological target: T10, ARK5 (Homo sapiens, UniProt O60285); assay: Kinase profiling at 10 μM (Eurofins); type: biochemical; settings: read-out: Inhibitory activity
T10 construct: purchased Eurofins Pharma Discovery (KinaseProfiler); IC50 values by Reaction Biology Corp

H1299 cells [5] = assay: Annexin V/PI flow cytometric analysis of apoptosis; type: cell-based, human; settings: 10 µM, 48 h
Experimental: (§3) Annexin V assays were performed according to the manufacturer’s protocol (BD Pharmingen, San Diego, CA, USA). Briefly, 10,000 cells were plated into 60-mm plates and treated with varying concentrations of AIU2001 for 48 h. The cells were harvested and incubated with 4 μL allophycocyanin (APC)-conjugated annexin V (20 μg/mL) and 4 μL PI (50 μg/mL) for 15 min. Fluorescence analyses were performed using flow cytometry (CyFlow Cube 6; Sysmexpartec, Goerlitz, Germany). Cells were classified as early apoptotic (annexin V-positive/PI-negative), late apoptotic/necrotic (annexin V-positive/PI-positive), necrotic/dead (annexin V-negative/PI-positive), and live (annexin V-negative/PI-negative). Flow cytometry data was analyzed using FlowJo software (TreeStar Inc., Ashland, OR, USA).

A549 cells [6] = assay: Annexin V/PI flow cytometric analysis of apoptosis; type: cell-based, human; settings: 10 µM, 48 h
Experimental: as §3

Abl = biological target: T11, Abl (Homo sapiens, UniProt P00519); assay: Kinase profiling at 10 μM (Eurofins); type: biochemical; settings: read-out: Inhibitory activity
T11 construct: purchased Eurofins Pharma Discovery (KinaseProfiler); IC50 values by Reaction Biology Corp

c-KIT (V560G) = biological target: T12, c-KIT (V560G) (Homo sapiens, UniProt P10721, V560G); assay: In vitro kinase assay, IC50 (Reaction Biology Corp.); type: biochemical
T12 construct: purchased Eurofins Pharma Discovery (KinaseProfiler); IC50 values by Reaction Biology Corp

c-KIT [7] = biological target: T1, c-KIT; assay: as above; type: biochemical

T1 sequence (P10721 26-976): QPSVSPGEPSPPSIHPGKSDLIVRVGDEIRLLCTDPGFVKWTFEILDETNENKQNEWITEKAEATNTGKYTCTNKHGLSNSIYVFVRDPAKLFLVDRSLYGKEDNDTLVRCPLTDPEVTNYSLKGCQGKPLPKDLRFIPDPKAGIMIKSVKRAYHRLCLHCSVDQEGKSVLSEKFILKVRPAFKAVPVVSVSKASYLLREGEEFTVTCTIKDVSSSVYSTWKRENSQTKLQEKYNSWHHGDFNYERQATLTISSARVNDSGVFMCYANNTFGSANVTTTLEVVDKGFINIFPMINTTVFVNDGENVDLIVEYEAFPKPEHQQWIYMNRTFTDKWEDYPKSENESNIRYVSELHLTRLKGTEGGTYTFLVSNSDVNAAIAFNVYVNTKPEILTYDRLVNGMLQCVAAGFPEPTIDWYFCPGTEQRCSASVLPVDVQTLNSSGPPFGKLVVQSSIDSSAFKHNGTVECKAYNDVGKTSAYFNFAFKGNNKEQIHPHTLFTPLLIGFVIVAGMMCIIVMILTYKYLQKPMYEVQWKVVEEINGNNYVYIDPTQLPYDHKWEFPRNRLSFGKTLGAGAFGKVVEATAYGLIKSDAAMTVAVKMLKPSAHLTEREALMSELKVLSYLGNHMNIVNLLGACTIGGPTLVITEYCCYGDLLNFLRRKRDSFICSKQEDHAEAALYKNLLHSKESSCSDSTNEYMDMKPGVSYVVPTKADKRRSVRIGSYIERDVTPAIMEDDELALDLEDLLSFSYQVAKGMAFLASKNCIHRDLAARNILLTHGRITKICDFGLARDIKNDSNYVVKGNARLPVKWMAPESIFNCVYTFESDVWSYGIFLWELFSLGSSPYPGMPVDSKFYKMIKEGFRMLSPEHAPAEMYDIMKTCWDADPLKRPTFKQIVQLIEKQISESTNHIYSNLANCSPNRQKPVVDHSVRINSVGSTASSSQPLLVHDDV
T11 sequence (P00519 whole entry): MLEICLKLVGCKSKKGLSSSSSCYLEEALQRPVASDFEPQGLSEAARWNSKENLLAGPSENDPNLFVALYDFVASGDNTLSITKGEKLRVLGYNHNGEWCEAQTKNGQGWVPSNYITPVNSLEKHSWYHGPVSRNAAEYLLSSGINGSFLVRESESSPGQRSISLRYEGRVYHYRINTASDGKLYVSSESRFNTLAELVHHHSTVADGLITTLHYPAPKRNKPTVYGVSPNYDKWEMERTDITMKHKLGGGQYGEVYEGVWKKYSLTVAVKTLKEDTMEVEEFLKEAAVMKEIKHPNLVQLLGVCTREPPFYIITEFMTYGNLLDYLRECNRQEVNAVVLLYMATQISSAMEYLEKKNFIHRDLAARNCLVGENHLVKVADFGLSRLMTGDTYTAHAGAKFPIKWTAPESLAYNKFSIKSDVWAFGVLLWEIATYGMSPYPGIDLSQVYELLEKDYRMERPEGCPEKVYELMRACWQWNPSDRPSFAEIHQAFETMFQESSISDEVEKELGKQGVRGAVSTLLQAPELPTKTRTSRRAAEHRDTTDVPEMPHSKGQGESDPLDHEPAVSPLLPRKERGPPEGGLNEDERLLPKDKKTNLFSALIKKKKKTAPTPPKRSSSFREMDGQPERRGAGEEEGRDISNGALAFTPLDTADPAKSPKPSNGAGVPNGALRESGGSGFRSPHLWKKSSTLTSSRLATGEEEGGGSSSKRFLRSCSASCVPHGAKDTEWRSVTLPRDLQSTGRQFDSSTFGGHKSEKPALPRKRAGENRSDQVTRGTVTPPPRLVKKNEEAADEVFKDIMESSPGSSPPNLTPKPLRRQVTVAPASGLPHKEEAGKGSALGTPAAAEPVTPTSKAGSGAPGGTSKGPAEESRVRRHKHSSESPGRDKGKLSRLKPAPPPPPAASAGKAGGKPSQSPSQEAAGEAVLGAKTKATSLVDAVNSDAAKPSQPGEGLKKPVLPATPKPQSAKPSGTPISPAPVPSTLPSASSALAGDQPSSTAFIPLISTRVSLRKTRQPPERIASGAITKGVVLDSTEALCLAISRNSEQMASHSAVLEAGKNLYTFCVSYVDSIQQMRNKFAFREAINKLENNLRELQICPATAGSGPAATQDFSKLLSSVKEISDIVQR
T7 sequence (P12931 whole entry): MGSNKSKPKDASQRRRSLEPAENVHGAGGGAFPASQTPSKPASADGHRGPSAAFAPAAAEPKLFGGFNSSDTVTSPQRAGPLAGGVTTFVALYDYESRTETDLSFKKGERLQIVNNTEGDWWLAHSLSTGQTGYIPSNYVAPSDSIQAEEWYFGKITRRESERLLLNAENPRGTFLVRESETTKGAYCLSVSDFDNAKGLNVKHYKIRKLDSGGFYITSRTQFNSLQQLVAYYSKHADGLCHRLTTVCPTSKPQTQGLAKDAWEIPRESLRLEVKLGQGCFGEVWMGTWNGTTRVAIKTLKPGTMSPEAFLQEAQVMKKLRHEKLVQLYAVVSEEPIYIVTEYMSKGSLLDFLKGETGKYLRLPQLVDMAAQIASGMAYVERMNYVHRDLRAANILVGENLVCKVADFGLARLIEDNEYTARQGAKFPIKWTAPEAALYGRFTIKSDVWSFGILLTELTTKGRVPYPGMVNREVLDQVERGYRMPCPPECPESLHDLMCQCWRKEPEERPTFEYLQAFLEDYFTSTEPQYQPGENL
T6 sequence (P04629 33-796): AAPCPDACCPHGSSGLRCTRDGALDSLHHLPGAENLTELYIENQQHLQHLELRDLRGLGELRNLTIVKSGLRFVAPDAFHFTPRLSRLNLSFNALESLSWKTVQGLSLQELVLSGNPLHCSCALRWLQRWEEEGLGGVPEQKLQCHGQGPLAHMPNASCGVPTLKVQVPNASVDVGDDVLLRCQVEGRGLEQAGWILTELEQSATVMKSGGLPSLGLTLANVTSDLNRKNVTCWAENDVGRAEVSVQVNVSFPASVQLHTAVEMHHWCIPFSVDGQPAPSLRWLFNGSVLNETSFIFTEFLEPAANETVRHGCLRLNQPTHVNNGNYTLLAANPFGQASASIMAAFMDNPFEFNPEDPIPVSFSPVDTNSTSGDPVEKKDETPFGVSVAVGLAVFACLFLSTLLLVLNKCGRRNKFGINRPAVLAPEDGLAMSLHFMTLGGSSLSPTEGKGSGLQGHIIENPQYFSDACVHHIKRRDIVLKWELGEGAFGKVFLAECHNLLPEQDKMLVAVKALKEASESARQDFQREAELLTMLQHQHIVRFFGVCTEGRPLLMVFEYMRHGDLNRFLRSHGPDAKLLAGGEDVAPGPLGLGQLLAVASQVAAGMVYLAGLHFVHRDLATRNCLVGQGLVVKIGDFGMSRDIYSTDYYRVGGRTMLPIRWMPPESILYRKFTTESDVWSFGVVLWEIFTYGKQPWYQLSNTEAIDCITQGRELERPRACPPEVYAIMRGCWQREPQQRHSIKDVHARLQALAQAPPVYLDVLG
T5 sequence (P30291 whole entry): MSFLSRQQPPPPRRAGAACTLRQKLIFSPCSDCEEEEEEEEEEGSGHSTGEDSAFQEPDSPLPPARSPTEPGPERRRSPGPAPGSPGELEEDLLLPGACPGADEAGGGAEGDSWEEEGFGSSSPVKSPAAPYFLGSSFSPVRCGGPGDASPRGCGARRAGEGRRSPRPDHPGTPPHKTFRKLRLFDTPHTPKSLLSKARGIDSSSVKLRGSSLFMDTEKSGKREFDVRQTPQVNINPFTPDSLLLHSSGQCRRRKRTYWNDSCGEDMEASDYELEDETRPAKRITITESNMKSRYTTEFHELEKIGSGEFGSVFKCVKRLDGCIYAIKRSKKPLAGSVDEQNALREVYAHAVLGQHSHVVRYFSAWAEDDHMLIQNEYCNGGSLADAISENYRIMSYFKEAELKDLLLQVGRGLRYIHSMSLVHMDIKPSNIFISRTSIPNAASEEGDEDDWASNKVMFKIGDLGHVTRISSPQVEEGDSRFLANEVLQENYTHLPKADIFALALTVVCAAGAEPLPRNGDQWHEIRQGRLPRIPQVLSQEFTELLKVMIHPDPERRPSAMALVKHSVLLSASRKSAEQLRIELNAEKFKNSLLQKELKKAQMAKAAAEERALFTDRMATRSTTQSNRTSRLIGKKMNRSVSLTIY
T3 sequence (Q00535 whole entry): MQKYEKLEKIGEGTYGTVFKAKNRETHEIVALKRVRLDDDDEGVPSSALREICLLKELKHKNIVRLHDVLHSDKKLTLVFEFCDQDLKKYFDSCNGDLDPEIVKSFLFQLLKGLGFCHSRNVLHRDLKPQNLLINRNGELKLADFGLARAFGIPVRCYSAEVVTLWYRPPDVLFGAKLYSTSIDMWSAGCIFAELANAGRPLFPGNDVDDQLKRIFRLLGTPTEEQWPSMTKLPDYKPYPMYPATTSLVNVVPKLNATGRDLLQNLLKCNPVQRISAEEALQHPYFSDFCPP
T3 sequence (Q15078 whole entry partner): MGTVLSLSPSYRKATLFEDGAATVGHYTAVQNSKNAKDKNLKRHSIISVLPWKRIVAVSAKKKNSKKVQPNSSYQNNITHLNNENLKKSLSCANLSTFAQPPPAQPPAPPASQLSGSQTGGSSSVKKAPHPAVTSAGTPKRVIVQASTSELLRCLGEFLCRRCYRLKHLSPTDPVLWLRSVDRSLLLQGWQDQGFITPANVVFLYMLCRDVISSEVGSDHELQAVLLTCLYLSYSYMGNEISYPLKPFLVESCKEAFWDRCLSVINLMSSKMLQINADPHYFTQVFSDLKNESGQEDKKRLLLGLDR
T12 sequence (P10721 26-976 V560G): as the sequence (P10721 26-976) above, with V535G counted along it

Work on `Brc1ccc(-c2cnc(Nc3cccc4ccccc34)o2)cc1` [AIU2001, 5-(4-bromophenyl)-N-(naphthalen-1-yl) oxazol-2-amine] yielded an inhibition at 10 µM (c-KIT [1]) of no less than 75%, an inhibition at 10 µM (p70S6K) of 8% and an inhibition at 10 µM (CDK5/p35) of 58%. The “Phosphorylated STAT5” value (H1299 cells [2]) was “inhibited phosphorylated STAT5”, the inhibition at 10 µM (ZAP-70) was 0% and the viability at 0.16 µM (H1299 cells [3]; Homo sapiens, NCI-H1299, 120 h, Olaparib 0, AIU2001 0.16 μM, 5 days, panel A, read-out: Relative viability) was 101%. For the same molecule, the viability at 0.32 µM (H1299 cells [3]; Homo sapiens, NCI-H1299, 120 h, Olaparib 0, AIU2001 0.32 μM, 5 days, panel A, read-out: Relative viability) was 93.7%, the viability at 0.63 µM (H1299 cells [3]; Homo sapiens, NCI-H1299, 120 h, Olaparib 0, AIU2001 0.63 μM, 5 days, panel A, read-out: Relative viability) was 94.2% and the viability at 1.25 µM (H1299 cells [3]; Homo sapiens, NCI-H1299, 120 h, Olaparib 0, AIU2001 1.25 μM, 5 days, panel A, read-out: Relative viability) was 90%. It also gave a viability at 2.5 µM (H1299 cells [3]; Homo sapiens, NCI-H1299, 120 h, Olaparib 0, AIU2001 2.50 μM, 5 days, panel A, read-out: Relative viability) of 65.5%, a viability at 5 µM (H1299 cells [3]; Homo sapiens, NCI-H1299, 120 h, Olaparib 0, AIU2001 5.00 μM, 5 days, panel A, read-out: Relative viability) of 26.2% and a viability at 10 µM (H1299 cells [3]; Homo sapiens, NCI-H1299, 120 h, Olaparib 0, AIU2001 10.00 μM, 5 days, panel A, read-out: Relative viability) of 15.4%. For the same molecule, the “Growth inhibition” value (H1299 cells [3]; MTT, five days) was “significantly inhibited the growth”, the viability at 0.16 µM (A549 cells [4]; Homo sapiens, 120 h, Olaparib 0, AIU2001 0.16 μM, 5 days, panel A, read-out: Relative viability) was 95.1% and the viability at 0.32 µM (A549 cells [4]; Homo sapiens, 120 h, Olaparib 0, AIU2001 0.32 μM, 5 days, panel A, read-out: Relative viability) was 95%. It also gave a viability at 0.63 µM (A549 cells [4]; Homo sapiens, 120 h, Olaparib 0, AIU2001 0.63 μM, 5 days, panel A, read-out: Relative viability) of 89%, a viability at 1.25 µM (A549 cells [4]; Homo sapiens, 120 h, Olaparib 0, AIU2001 1.25 μM, 5 days, panel A, read-out: Relative viability) of 86.5% and a viability at 2.5 µM (A549 cells [4]; Homo sapiens, 120 h, Olaparib 0, AIU2001 2.50 μM, 5 days, panel A, read-out: Relative viability) of 53.6%. For the same molecule, the viability at 5 µM (A549 cells [4]; Homo sapiens, 120 h, Olaparib 0, AIU2001 5.00 μM, 5 days, panel A, read-out: Relative viability) was 31.6%, the viability at 10 µM (A549 cells [4]; Homo sapiens, 120 h, Olaparib 0, AIU2001 10.00 μM, 5 days, panel A, read-out: Relative viability) was 21.1% and the “Growth inhibition” value (A549 cells [4]; MTT, five days) was “significantly inhibited the growth”. For the same molecule, the inhibition at 10 µM (WEE1) was 8%, the inhibition at 10 µM (TrkA) was 40% and the inhibition at 10 µM (cSRC) was 22%. The inhibition at 10 µM (ERBB4) was 1%, the “Growth inhibition” value (CCD18-Lu cells) was “relatively less” and the “Growth inhibition” value (H460 cells) was “significantly inhibited the growth”. For the same molecule, the “Growth inhibition” value (BEAS2B cells) was “relatively less”, the inhibition at 10 µM (ROCK-I) was 0% and the inhibition at 10 µM (ARK5) was 75%. The “Increase in early and late apoptotic cells” value (H1299 cells [5]) was 6.7 fold, the “Increase in early and late apoptotic cells” value (A549 cells [6]) was 4.2 fold and the inhibition at 10 µM (Abl) was 51%. It also gave an IC50 (c-KIT (V560G)) of 53.4 nM and an IC50 (c-KIT [7]) of 223 nM.

Reference: article PMC6801739, “Antitumor Activity of a Novel Tyrosine Kinase Inhibitor AIU2001 Due to Abrogation of the DNA Damage Repair in Non-Small Cell Lung Cancer Cells” (International Journal of Molecular Sciences, 2019)
